From patent US20220336811A1, “CATHODE ACTIVE MATERIAL FOR SECONDARY BATTERY COMPRISING CHARGE TRANSFER COMPLEX AND METHOD FOR MANUFACTURING SAME” (SEOUL NATIONAL UNIVERSITY R&DB FOUNDATION, priority 2019, published 2022) come the findings set out here.

In brackets after ≈: the same amount, converted by molar mass.

For this data set the following is noted: 3 h. The procedure:
The synthesized cathode mixtures were rolled with a stainless steel (SUS) rod and cut to a size of 1.5 cm×1.5 cm to produce cathodes for secondary batteries.
The cathodes produced in Embodiment 2 were put in 4 mL of a tetraethyleneglycol dimethylether (TEGDME) solvent, and stored in a 60° C. oven for 3 hours, and then solubilities of the cathode active materials for a solvent in an electrolyte were measured through ultraviolet-visible (UV-Vis) spectroscopy by using the used solvent.

By solubility is commonly meant how much of the substance goes into solution per volume. As for `c1ccc2nc3ccccc3nc2c1` [compound 1, phenazine], the solubility amounted to 9.087 mM (≈ 1640 µg/mL). Regarding `N#CC(C#N)=c1ccc(=C(C#N)C#N)cc1` [compound 2, 7,7,8,8-tetracyanoquinodimethane], the solubility turned out to be 5.625 mM (≈ 1150 µg/mL).
